Assay results reported in patent US5320094A (The Johns Hopkins University, priority 1992, dated 1994).
Where “and” joins values, the source holds several entries; their conditions need not be identical. Equal values may be shown once. Read-outs that look alike come from different tables or passages of the source.

Assays:
[1] = for Peak Insulin Level: fasting
Source text: The timing of each aerosol actuation was controlled by a Rosenthal-French dosimeter and lasted for one second. […] Inspiratory flow rate at the time of aerosol inhalation was regulated to less than 30 and, preferably about 17 liters/minute by rate limiting orifices of the type described above. During inhalation, patients inspired from residual volume to total lung capacity.
After the sixth actuation, aerosol was inhaled from the holding chamber through a mouthpiece. […]
To accomplish this dosing regime, volunteers inhaled 5-13 times from the holding chamber. Each inhalation was preceded by six actuations of the nebulizer.
(§1) Subjects 3, 4 and 6 were medicated with Glyburide 10 mg/day, 15 mg/day, and 5 mg/day, respectively. Subject No. 5 was treated with Diabinese 750 mg/day. Subject No. 7 was medicated with Glyburide 20 mg/day and Subject No. 8 was unmedicated. […] Blood samples were assessed at the time of collection for glucose levels with a glucose meter (Accuchek). Determinations of plasma glucose levels were also obtained from photometric reaction with glucose hexokinase using an Hitachi 736 and 737 chemical analyzer (Boehringer Mannheim Diagnostics). The reference range for fasting adults using this technique and equipment is 3.92-6.44 SI units. […] The expected range of values for normals in the fasting state, as provided by Diagnostics Products Corp., is 18-210 SI units. An IV saline solution was running, 50% glucose was available in case the blood glucose level decreased rapidly, and a diabetologist was present during the study. […] Studies were performed in the Johns Hopkins Outpatient Clinical Research Center. All patients who participated in these experiments gave informed consent to a written description of the study, which was approved by the Institutional Review Board.
When averaging decreases in blood glucose levels the data were normalized in terms of percent change from baseline.

[2] = test system: normal subjects and non-insulin dependent diabetic (NIDDM) subjects; assay: Blood glucose response after inhalation of aerosolized insulin; type: in vivo, human; conditions: for Maximum Decrease in Glucose (% of Baseline): fasting
Source text: The timing of each aerosol actuation was controlled by a Rosenthal-French dosimeter and lasted for one second. […] The distance between the subject's mouth and the nebulizer reduced aerosol velocity and, thus, impaction of particles in the mouth. Inspiratory flow rate at the time of aerosol inhalation was regulated to less than 30 and, preferably about 17 liters/minute by rate limiting orifices of the type described above. During inhalation, patients inspired from residual volume to total lung capacity.
After the sixth actuation, aerosol was inhaled from the holding chamber through a mouthpiece. […] Each inhalation was proceeded by six actuations of the nebulizer.

rabbits = conditions: micellar form, intrajejunal administration, reduction in blood glucose; cited from earlier work
[3] = test system: normal and non-insulin-dependent non-obese diabetic subjects; conditions: rectal suppository; cited from earlier work
diabetic subjects = conditions: intranasal bile-salt aerosol; cited from earlier work
[4] = test system: normal and NIDDM subjects; conditions: inhaled
Protocol: as §1

[5] = NIDDM subject 3, 0.21 U/kg BW inhaled
[6] = NIDDM subject 4, 0.23 U/kg BW inhaled
[7] = NIDDM subject 5, 0.21 U/kg BW inhaled
[8] = NIDDM subject 6, 0.20 U/kg BW inhaled
[9] = NIDDM subject 7, 0.20 U/kg BW inhaled
[10] = NIDDM subject 8, 0.20 U/kg BW inhaled
[11] = eight subjects (second dose for subjects 1 and 2), mean dose 0.21 U/kg BW inhaled
[12] = normal subject 1, first dose, 0.09 U/kg BW inhaled
[13] = normal subject 1, second dose, 0.19 U/kg BW inhaled
[14] = normal subject 2, first dose, 0.11 U/kg BW inhaled
[15] = normal subject 2, second dose, 0.21 U/kg BW inhaled

insulin: regular U-500 pork insulin (Eli Lilly) aerosolized by a jet nebulizer; background citations concern insulin given by other routes
Time to Peak Insulin Level [1, 5]: 5 min
log Peak Insulin Level [1, 5]: 2.7694
Peak Insulin Level [1, 5]: 588 SI units
Time to Peak Insulin Level [1, 6]: 15 min
log Peak Insulin Level [1, 6]: 2.2967
Peak Insulin Level [1, 6]: 198 SI units
Time to Peak Insulin Level [1, 7]: 40 min
log Peak Insulin Level [1, 7]: 2.3096
Peak Insulin Level [1, 7]: 204 SI units
Time to Peak Insulin Level [1, 8]: 52 min
log Peak Insulin Level [1, 8]: 2.3909
Peak Insulin Level [1, 8]: 246 SI units
Time to Peak Insulin Level [1, 9]: 25 min
log Peak Insulin Level [1, 9]: 2.0569
Peak Insulin Level [1, 9]: 114 SI units
Time to Peak Insulin Level [1, 10]: 100 min
log Peak Insulin Level [1, 10]: 2.7513
Peak Insulin Level [1, 10]: 564 SI units
Return of blood insulin levels to baseline ([1]; approximately 0.2 U/kg BW inhaled, up to 200 minutes): did not return to baseline by the time the experiment was concluded in seven of the study subjects
Peak Insulin Level, geometric mean [1, 11]: 254 SI units
Time to Peak Insulin Level, mean [1, 11]: 35 min and 35 ± 31 min
log Peak Insulin Level, mean [1, 11]: 2.4055
Insulin absorption across the lung mucosa compared with subcutaneous administration ([1]; inhaled aerosol): more rapid than following subcutaneous administration
Time to Peak Insulin Level [1, 12]: 10 min
log Peak Insulin Level [1, 12]: 2.1399
Peak Insulin Level [1, 12]: 138 SI units
Time to Peak Insulin Level [1, 13]: 35 min
log Peak Insulin Level [1, 13]: 2.3345
Peak Insulin Level [1, 13]: 216 SI units
Time to Peak Insulin Level [1, 14]: 5 min
log Peak Insulin Level [1, 14]: 2.4771
Peak Insulin Level [1, 14]: 300 SI units
Time to Peak Insulin Level [1, 15]: 5 min
log Peak Insulin Level [1, 15]: 2.3345
Peak Insulin Level [1, 15]: 216 SI units
Time at which blood insulin levels peaked post inhalation, range ([1]; range over all subjects and doses): between five and one hundred minutes
Time to 10% Decrease in Glucose [2, 5]: 30 min
Time to Lowest Glucose Level [2, 5]: 150 min
Maximum Decrease in Glucose (% of Baseline) [2, 5]: 43%
Glucose level decreased to, after insulin inhalation ([2]; NIDDM subject 3, 0.21 U/kg BW inhaled, baseline 10.58): 6.05 SI units
Time to 10% Decrease in Glucose [2, 6]: 30 min
Time to Lowest Glucose Level [2, 6]: 160 min
Maximum Decrease in Glucose (% of Baseline) [2, 6]: 71%
Glucose level decreased to, after insulin inhalation ([2]; NIDDM subject 4, 0.23 U/kg BW inhaled, baseline 16.58): 4.82 SI units
Time to 10% Decrease in Glucose [2, 7]: 40 min
Time to Lowest Glucose Level [2, 7]: 200 min
Maximum Decrease in Glucose (% of Baseline) [2, 7]: 53%
Glucose level decreased to, after insulin inhalation ([2]; NIDDM subject 5, 0.21 U/kg BW inhaled, baseline 12.12): 5.71 SI units
Time to 10% Decrease in Glucose [2, 8]: 42 min
Time to Lowest Glucose Level [2, 8]: 140 min
Maximum Decrease in Glucose (% of Baseline) [2, 8]: 54%
Glucose level decreased to, after insulin inhalation ([2]; NIDDM subject 6, 0.20 U/kg BW inhaled, baseline 9.27): 4.26 SI units
Time to 10% Decrease in Glucose [2, 9]: 20 min
Time to Lowest Glucose Level [2, 9]: 120 min
Maximum Decrease in Glucose (% of Baseline) [2, 9]: 61%
Glucose level decreased to, after insulin inhalation ([2]; NIDDM subject 7, 0.20 U/kg BW inhaled, baseline 13.94): 5.49 SI units
Time to 10% Decrease in Glucose [2, 10]: 60 min
Time to Lowest Glucose Level [2, 10]: 150 min
Maximum Decrease in Glucose (% of Baseline) [2, 10]: 49%
Glucose level decreased to, after insulin inhalation ([2]; NIDDM subject 8, 0.20 U/kg BW inhaled, baseline 13.30): 6.78 SI units
Mean maximum decrease in glucose from baseline ([2]; NIDDM subjects, 0.2 U/kg BW inhaled): 55±10%
Shift of blood glucose levels to the normal range ([2]; NIDDM subjects, approximately 0.2 U/kg BW aerosolized insulin, normal range 4.20-6.44 SI units): shifted blood glucose levels of five of the six NIDDM subjects to within the normal range
Maximum Decrease in Glucose (% of Baseline), mean ([2]; eight subjects (second dose for subjects 1 and 2), 0.2 U/kg BW inhaled): 52±10% and 52%
Time to 10% Decrease in Glucose, mean [2, 11]: 36 ± 15 min and 36 min
Time to Lowest Glucose Level (time to maximum decrease in blood glucose), mean [2, 11]: 138 ± 46 min and 138 min
Glucose level decreased to, after insulin inhalation ([2]; normal subject 1, 0.09 U/kg BW inhaled, baseline 4.70): 4.09 SI units
Glucose level decreased to, after insulin inhalation ([2]; normal subject 1, 0.19 U/kg BW inhaled, baseline 4.70): 3.08 SI units
Time to 10% Decrease in Glucose [2, 12]: 35 min
Time to Lowest Glucose Level [2, 12]: 80 min
Maximum Decrease in Glucose (% of Baseline) [2, 12]: 13%
Time to 10% Decrease in Glucose [2, 13]: 50 min
Time to Lowest Glucose Level [2, 13]: 140 min
Maximum Decrease in Glucose (% of Baseline) [2, 13]: 34%
Glucose level decreased to, after insulin inhalation ([2]; normal subject 2, 0.11 U/kg BW inhaled, baseline 3.95): 3.14 SI units
Glucose level decreased to, after insulin inhalation ([2]; normal subject 2, 0.21 U/kg BW inhaled, baseline 4.34): 2.24 SI units
Time to 10% Decrease in Glucose [2, 14]: 5 min
Time to Lowest Glucose Level [2, 14]: 40 min
Maximum Decrease in Glucose (% of Baseline) [2, 14]: 20%
Time to 10% Decrease in Glucose [2, 15]: 15 min
Time to Lowest Glucose Level [2, 15]: 40 min
Maximum Decrease in Glucose (% of Baseline) [2, 15]: 48%
Mean maximum decrease in glucose from baseline ([2]; normal subjects, 0.2 U/kg BW inhaled): 41±10%
Effect on blood glucose levels ([2]; normal subjects, approximately 0.2 U/kg BW aerosolized insulin to the mouth): effectively lowered blood glucose levels in the normal subjects
Required dose relative to intramuscular dose (rabbits): 25-50 times
Complaints after rectal administration [3]: some subjects complained of abdominal discomfort or a feeling of rectal urgency
Dose necessary to lower blood glucose significantly, relative to subcutaneous dose [3]: 10 times
Amount of insulin absorbed through the nasal mucosa, relative to dose delivered by intravenous injection (diabetic subjects): approximately 10%
Dose required to lower blood glucose, relative to subcutaneous dose (diabetic subjects): 2.5 times
Local effects after intranasal administration (diabetic subjects): subjects reported nasal irritation and nasal congestion
Adverse symptoms from the respiratory tract [4]: No adverse symptoms from the respiratory tract were reported or signs observed
Adrenergic, hypoglycemic signs or symptoms ([4]; listed as Aerosolized insulin): lack of any signs or symptoms, including adrenergic symptoms
Tolerability of aerosolized insulin ([4]; listed as Aerosolized insulin): very well tolerated
Tolerability of aerosolized insulin ([4]; listed as aerosolized insulin): well-tolerated
Adrenergic, hypoglycemic signs or symptoms ([4]; listed as insulin aerosol): none of the subjects had adrenergic, hypoglycemic symptoms
Tolerability of aerosolized insulin ([4]; listed as insulin aerosol): well-tolerated
